Tests used:
Type in all cases: in vivo, mouse
Details in all cases: oral once daily 10 weeks, 50 mg/kg
[1] = Example 11 HFD mice: oral glucose tolerance test
Experimental: After adapting 8-week-old male C57b1/6 J mice to the basic diet (AIN-76A diet) for 2 weeks, and consuming Diet Induced Obesity Diet Formulas (D12451) 60 kcal % HFD diet for 2 weeks from 10 weeks of age, and then the test drug was administered when the average body weight reached 28 g or more. The animal breeding room environment of the mouse was maintained in a constant temperature (25±2° C.), constant humidity (50±5%) and a 12-hour photoperiod (light on 07:00˜19:00) in which the light and shade were controlled in an SPF environment. […]
(§1) […] Blood to be used for blood glucose measurement was collected from the tail vein of a mouse, and blood glucose was measured using a serum analyzer (Accutrend plus GCTL Cobas Roche, Germany).
(§2) Results obtained from various experiments are recorded as mean±standard error of mean (SEM), and significance verification is determined using the student's T-test analysis method. The data were analyzed using one-way ANOVA to determine a statistically significant variance between each group for each final point measured, and statistical significance between each group was determined using the nonparametric Mann-Whitney test and Dunnett's multiple comparison test (IBM SPSS statistics version 19.0 statistic software, Inc, IBM, USA).

[2] = Example 11 HFD mice: serum test
Experimental: (§3) After adapting 8-week-old male C57b1/6 J mice to the basic diet (AIN-76A diet) for 2 weeks, and consuming Diet Induced Obesity Diet Formulas (D12451) 60 kcal % HFD diet for 2 weeks from 10 weeks of age, and then the test drug was administered when the average body weight reached 28 g or more. The animal breeding room environment of the mouse was maintained in a constant temperature (25±2° C.), constant humidity (50±5%) and a 12-hour photoperiod (light on 07:00˜19:00) in which the light and shade were controlled in an SPF environment. […] The test drug was dispersed in 0.5% Carboxymethyl cellulose (CMC) and administered in a volume of 0.2 ml, and the drug was administered orally by force into the stomach using a metal Zonde for oral administration.
Blood was collected by cardiac puncture to conduct a blood biochemical test after the end of the final experiment, and then plasma was separated by centrifugation at 3,000 rpm and 4° C. for 15 minutes within 30 minutes after blood collection, and then stored at −74° C. for blood chemistry and ELISA analysis. The contents of total cholesterol, high-density lipoprotein (HDL), low-density lipoprotein (LDL), triglyceride, FFA, glucose, and LDH, which are indicators of lipid content, were measured using an automated biochemical analyzer (Hitachi-720, Hitachi Medical, Japan). IGF-1 and Creatine were diluted in coating buffer, coated on microwells, and left overnight at 4° C. After washing each well with the buffer solution three times, 100 μl of serum (10-fold dilution) was dispensed, left at room temperature for 1 hour, and then washed twice with the buffer solution. Thereafter, 100 μl of the antibody avidin-HRP conjugate was treated, left at room temperature for 1 hour, and then washed again. 100 μl of the TMB substrate was dispensed, left in the dark for 30 minutes, treated with 50 μl of the stop solution, and absorbance was measured at a wavelength of 450 nm using an ELISA reader.
as §2

[3] = Example 11 HFD mice: weight change, dietary efficiency and organ weight
Experimental: as §3
Body weight and food intake were measured and recorded at regular times every week. Total weight gain: weight at the end of the experiment−weight at the start of the experiment (1) Food intake=[…] (2) Food efficiency ratio (FER)=[total weight gain/total food intake]×100 (3)
The data were analyzed using one-way ANOVA to determine a statistically significant variance between each group for each final point measured, and statistical significance between each group was determined using the nonparametric Mann-Whitney test and Dunnett's multiple comparison test (IBM SPSS statistics version 19.0 statistic software, Inc, IBM, USA).

[4] = Example 11 HFD mice: body fat reduction, white adipose tissue weight
Experimental: as §3
After removing retroperitoneal white adipose tissue and intestines white adipose tissue of each experimental animal, the weight of adipose tissue was calculated.
as §2

[5] = Example 12 HFD mice: oral glucose tolerance test
Experimental: as §3, §1, §2

With CN(C)C(=N)N=C(N)N [Met, Metformin] the “Inhibition Rate (OGTT)” value [1] was 23%, the “OGTT (30 min-0 min, mg/dL)” value ([1]; glucose 1 g/kg) was 148 ± 18.50^ mg/dL and the Cholesterol [2] was 175.6 ± 9.03 mg/dL. The Creatin [2] was 0.564 ± 0.011 mg/dL, the Glucose [2] was 202.5 ± 7.98 mg/dL and the HDL [2] was 88.1 ± 2.99 mg/dL. For the same compound, the IGF-1 [2] was 1455.8 ± 138.07 pg/mL, the “Inhibition Rate (Cholesterol)” value [2] was 40% and the “Inhibition Rate (Creatin)” value [2] was 175%. For the same compound, the “Inhibition Rate (Glucose)” value [2] was 11%, the “Inhibition Rate (HDL)” value [2] was 7% and the “Inhibition Rate (IGF-1)” value [2] was 89%. The “Inhibition Rate (LDH)” value [2] was 122%, the “Inhibition Rate (LDL)” value [2] was 71% and the “Inhibition Rate (NEFA)” value [2] was 61%. The “Inhibition Rate (Triglyceride)” value [2] was 65%, the LDH [2] was 592.0 ± 53.77 U/L and the LDL [2] was 12.3 ± 0.80 mg/dL. The NEFA [2] was 2.26 ± 0.10 mEq/L, the Triglyceride [2] was 118.6 ± 5.90 mg/dL and the Final weight [3] was 38.6 ± 0.93 g. The “Food intakes” value [3] was 2.24 g/day, the “Inhibition Rate (FER)” value [3] was 41% and the “Inhibition Rate (final weight)” value [3] was 43%. For the same compound, the “Inhibition Rate (weight gain)” value [3] was 51%, the Kidney weight [3] was 0.31 ± 0.01 g and the Spleen weight [3] was 0.10 ± 0.00 g. For the same compound, the Weight gain [3] was 15.3 ± 0.82 g, the “Inhibition Rate (intestines WAT)” value [4] was 46% and the “Inhibition Rate (retroperitoneal white adipose tissue)” value [4] was 12%. For the same compound, the “Intestines WAT” value [4] was 0.55 ± 0.05 g, the “Retroperitoneal white adipose tissue” value [4] was 0.89 ± 0.06 g and the “Inhibition Rate (OGTT)” value [5] was 23%. For the same compound, the “OGTT (30 min-0 min, mg/dL)” value ([5]; glucose 1 g/kg) was 148.0 ± 18.50^ mg/dL.
